Legend:
dopamine transporter = biological target: T1, dopamine transporter (Rattus norvegicus, UniProt P23977); assay: In vitro inhibition of 3H-dopamine (3H-DA) uptake in striatal synaptosomes; type: biochemical
T1 construct: Corpi striati from male Wistar rats (150-200 g) are homogenized; from tissue; host or cells: rat striatal synaptosomes (P2 pellet)
Procedure: Monoamine oxidase activity will be inhibited in the presence of pargyline. The homogenate is centrifuged at 1000×g for 10 min. The resulting supernatant is then centrifuged at 27,000×g for 50 min and the supernatant is discarded.
(§1) After incubation the samples are poured directly onto Whatman GF/C glass fibre filters under suction. The filters are then washed three times with 5 ml of ice-cold 0.9% (w/v) NaCl solution. The amount of radioactivity on the filters is determined by conventional liquid scintillation counting. Specific uptake is calculated as the difference between total uptake and non-specific uptake.

serotonin transporter = biological target: T2, serotonin transporter (Rattus norvegicus, UniProt P31652); assay: In vitro inhibition of 3H-5-hydroxytryptamine (3H-5-HT, serotonin) uptake in cortical synaptosomes; type: biochemical
T2 construct: Cerebral cortices from male Wistar rats (150-200 g) are homogenized; from tissue; host or cells: rat cerebral cortex synaptosomes (P2 pellet)
Procedure: Tissue preparation: Preparations are performed at 0-4° C. unless otherwise indicated. […] Monoamine oxidase activity will be inhibited in the presence of pargyline. The homogenate is centrifuged at 1000×g for 10 min.
as §1, with “Non-specific uptake is determined using citalopram (1 μM, final concentration). After” for “After”

T2 sequence (P31652 whole entry): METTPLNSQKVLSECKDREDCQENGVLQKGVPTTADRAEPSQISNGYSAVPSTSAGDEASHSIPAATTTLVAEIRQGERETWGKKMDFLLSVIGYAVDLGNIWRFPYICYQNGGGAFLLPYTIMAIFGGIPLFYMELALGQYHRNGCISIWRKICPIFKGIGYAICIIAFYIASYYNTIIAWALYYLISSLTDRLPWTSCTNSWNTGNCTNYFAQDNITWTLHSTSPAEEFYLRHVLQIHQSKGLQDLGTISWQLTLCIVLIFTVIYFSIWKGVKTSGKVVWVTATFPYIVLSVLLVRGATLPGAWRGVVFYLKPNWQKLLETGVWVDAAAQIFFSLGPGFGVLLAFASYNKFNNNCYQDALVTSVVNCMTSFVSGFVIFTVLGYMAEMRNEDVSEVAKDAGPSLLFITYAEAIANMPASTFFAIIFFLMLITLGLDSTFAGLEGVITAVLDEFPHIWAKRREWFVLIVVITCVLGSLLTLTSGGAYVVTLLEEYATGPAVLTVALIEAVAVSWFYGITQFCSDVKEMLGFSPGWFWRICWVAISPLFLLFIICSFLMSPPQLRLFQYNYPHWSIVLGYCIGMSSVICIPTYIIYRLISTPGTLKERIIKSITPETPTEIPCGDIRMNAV
T1 sequence (P23977 whole entry): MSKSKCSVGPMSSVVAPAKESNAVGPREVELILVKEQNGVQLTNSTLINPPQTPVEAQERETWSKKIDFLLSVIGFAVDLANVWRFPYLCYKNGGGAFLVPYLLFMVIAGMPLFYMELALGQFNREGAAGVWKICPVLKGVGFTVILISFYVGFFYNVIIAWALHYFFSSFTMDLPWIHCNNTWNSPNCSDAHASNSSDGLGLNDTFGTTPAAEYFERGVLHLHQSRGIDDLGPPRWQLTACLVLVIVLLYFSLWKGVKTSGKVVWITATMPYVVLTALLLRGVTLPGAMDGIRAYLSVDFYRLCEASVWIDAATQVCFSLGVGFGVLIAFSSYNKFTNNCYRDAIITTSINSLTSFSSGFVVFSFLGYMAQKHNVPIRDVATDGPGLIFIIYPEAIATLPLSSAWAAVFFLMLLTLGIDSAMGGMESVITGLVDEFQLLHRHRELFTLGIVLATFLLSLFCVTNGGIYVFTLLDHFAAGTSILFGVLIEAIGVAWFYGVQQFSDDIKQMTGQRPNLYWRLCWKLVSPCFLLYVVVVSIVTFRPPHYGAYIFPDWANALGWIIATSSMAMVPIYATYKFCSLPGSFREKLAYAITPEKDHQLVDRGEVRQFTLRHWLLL

Q: `CN1[C@H]2CC[C@@H]1[C@H](CSc1ccccc1)[C@@H](c1ccc(Cl)c(Cl)c1)C2` [(1R,2R,3S)-2-phenylthiomethyl-3-(3,4-dichlorophenyl)-tropane] was tested. Which IC50 (dopamine transporter) did it give?
A: The IC50 was 4.3 nM.

Q: What about the IC50 (serotonin transporter) of the same compound?
A: The IC50 was 9.2 nM.

From patent publication US6395748B2, “Tropane-derivatives, their preparation and use” (NeuroSearch A/S, priority 1996, dated 2002)
